# Like-named read-outs stand apart in the source and are kept apart here.
# Legend:
# Format in all cases: cell-based
# LNCaP95 cells = assay: Antiproliferative activity, resazurin assay, LNCaP95 cells; details: enzalutamide-resistant LNCaP95 cells, 72 h, cell proliferation, read-out: IC50 (μM) LCaP95
# Protocol: (§1) LNCaP95 and 22RV1 are prostate cancer cell lines that express high level of AR-V7 and other AR-Vs, and are enzalutamide-resistant. LNCaP95 cells were maintained in RPMI1640 medium with charcoal-stripped serum (CSS). 22Rv1 cells were maintained in RPMI1640 medium with 10% FBS. Cells were seeded in 96-well plates (5×10^3 cells/well) containing 50 μL growth medium for 24 hrs. After medium removal, 100 μL fresh medium containing individual compound at different concentrations was added to each well and incubated at 37° C. for 72 h. Then 20 μL of resazurin was added for 2 h before recording fluorescence at 560 nm (excitation) and 590 nm (emission) using a Victor microtiter plate fluorometer (Perkin-Elmer, USA). The IC50 was defined as the compound concentration required for inhibiting cell proliferation by 50%, in comparison with cells treated with the maximum amount of DMSO (0.25%) and considered as 100% viability.
# 22RV1 cells = assay: Antiproliferative activity, resazurin assay, 22RV1 cells; details: for Inhibitory rate at 10^−6 M in 22RV1 cells: 72 h incubation; for IC50: enzalutamide-resistant 22RV1 cells, 72 h, cell proliferation
# Protocol: as §1
# AR [1] = assay: Downregulation of AR in 22RV1 cells; details: 22RV1, enzalutamide-resistant prostate cancer cell line (FIG. 11)
# AR [2] = assay: Downregulation of AR in LNCaP95 cells; details: LNCaP95, enzalutamide-resistant prostate cancer cell line (FIG. 10)
# AR-V7 [3] = assay: Downregulation of AR-V7 in LNCaP95 cells; details: LNCaP95, enzalutamide-resistant prostate cancer cell line (FIG. 10)
# AR-V7 [4] = assay: Downregulation of AR-V7 in 22RV1 cells; details: 22RV1, enzalutamide-resistant prostate cancer cell line (FIG. 11)
Compound,IC50 (LNCaP95 cells; LNCaP-95),IC50 (22RV1 cells; Homo sapiens),Inhibitory rate at 10^−6 M in 22RV1 cells (22RV1 cells),other results
Niclosamide [reference compound],,,51.3%,IC50 (LNCaP95 cells): 0.372 µM; IC50 (22RV1 cells): 0.284 µM; downregulation of AR (AR [1]): dose-dependent downregulation
O=C(Nc1ccc(C(F)(F)F)c(C(F)(F)F)c1)c1cc(F)ccc1O [ARi 4],,,,downregulation of AR (AR [2]): dose-dependent downregulation; downregulation of AR-V7 (AR-V7 [3]): dose-dependent downregulation; downregulation of AR (AR [1]): dose-dependent downregulation; downregulation of AR-V7 (AR-V7 [4]): dose-dependent downregulation
O=C(Nc1ccc([N+](=O)[O-])cc1F)c1cc(F)ccc1O,0.206 µM,0.244 µM,43.9%,
O=C(Nc1ccc(C(F)(F)F)cc1F)c1cc(F)c(F)cc1O,0.199 µM,0.382 µM,52.7%,
N#Cc1cc(NC(=O)c2cc(F)ccc2O)ccc1C(F)(F)F,0.161 µM,0.195 µM,21.8%,
N#Cc1ccc(NC(=O)c2cc(F)ccc2O)c(F)c1,0.397 µM,0.414 µM,55.3%,

# More lines, main results first:
IC50 (LNCaP95 cells; LNCaP-95),IC50 (22RV1 cells; Homo sapiens),Compound,Inhibitory rate at 10^−6 M in 22RV1 cells (22RV1 cells),other results
0.13 µM,,O=C(Nc1ccc(C(F)(F)F)c(C(F)(F)F)c1)c1cc(F)ccc1O [drawing 30],15.7%,
0.152 µM,0.121 µM,O=C(Nc1ccc(C(F)(F)F)cc1F)c1cc(F)ccc1O,12.4%,
0.148 µM,0.135 µM,O=C(Nc1ccc(C(F)(F)F)cc1Cl)c1cc(F)ccc1O,14.5%,
